The test system of one experiment is U-87MG cells. In words: Cell migration / wound-healing assay. Type of experiment: cell-based, human. The settings on record: 20 μM peptide, 24 h, untreated cells 64%. How it is done:
color was read in a spectrophotometer at 680 nm. A standard curve was obtained using D-glucose (0–20 µg) subjected to anthrone in a sulfuric acid treatment, as described above.
Lysosomal vacuolation observed with acridine orange (AO) staining
U-87MG cells were treated with D-Δ(1-18)N-Ter-Antp peptide in serum-free DMEM media for 6 h at 37℃, incubated with acridine orange (1 μg/ml) for 15 min, visualized by fluorescence microscopy (Olympus LX2 - KSP, Tokyo, Japan), and images were captured with a CCD camera. About 200 cells were counted for each […]
Cell migration assay/wound-healing assay
U-87MG cells were seeded in 12-well plates and cultured. When reaching around 90% confluence, a straight scratch was mechanically made with a sterile 10-µl pipette tip. The cells were treated with various concentrations of D-Δ(1-18)N-Ter-Antp peptide in serum-free DMEM media for the indicated time points. The images of the wounds were captured at different time points using a digital camera mounted on a microscope to follow the position of the migrating front at defined times. […]
Summary of the peptide concentrations (µM) required for half-maximal cell death activity (IC50) in various cancer cell lines. […] Cell death was determined by PI staining and FACS analysis. […]

Another experiment has as its target T1, G-actin (Oryctolagus cuniculus, UniProt P68135).
T1 construct: Actin was purified from rabbit muscle as CaATP–G-actin complex; from tissue; host or cells: rabbit muscle
Description: Pyrenyl-actin G-actin polymerization assay. Type of experiment: biochemical, rabbit. The settings on record: 16.7 µM peptide, 2 μM MgATP–G-actin with 10% pyrenyl-labeled actin, 22 °C. How it is done: Actin was purified from rabbit muscle as CaATP–G-actin complex according to the published method using Supredex S200 (Cytiva Lifesciences) size exclusion chromatography in a buffer G composed of 5 mM Tris/HCl, pH 7.8, 0.2 mM CaCl2, 0.2 mM ATP, 0.5 mM dithiothreitol, and 0.01% NaN3. The purified G-actin was fluorescently labeled on Cys-374 with N-(1-pyrene) iodoacetamide (Invitrogene) to a molar ratio of 0.8 to 1.0 pyrene/G-actin, as described previously. CaATP–G-actin was converted into MgATP–G-actin by incubation on ice for 20 min with 20 μM MgCl2 and 0.2 mM EGTA to 10 μM and was used within 1 h.
G-actin polymerization was monitored by following the increase in the fluorescence of 10% pyrenyl-labeled actin. […] Fluorescence measurements were carried out at 22 °C in a Horiba/Jobin Yvon FluoroLog Spectrofluorometer using excitation and emission wavelengths of 365 and 407 nm, respectively. Data were analyzed using GraphPad Prism4.1.681 for Windows software (San Diego, CA, USA).
Figure 5 D-Δ(1-18)N-Ter-Antp altered actin filament organization (A,B) U-87MG cells were cultured and incubated for 24 h with D-Δ(1-18)N-Ter-Antp (10 µM). Cells were stained for actin using Phalloidin-488 and visualized by confocal microscopy (A) and quantified for Phalloidin-488 staining intensity (B). […] (D) Actin interaction with VDAC1 analyzed using the MST method. […]

Take “19-FTKGYGFGL-26- RQIKIWFQNRRMKWKK [D-Δ(1-18)N-Ter-Antp]”: the “Gap closed in wound-healing assay” value in the experiment with U-87MG cells was determined as 17%. Further, the “Effect on G-actin polymerization” value on G-actin was “inhibition of the actin filament assembly”.

(Values after paper PMC9599717, “The Multicellular Effects of VDAC1 N-Terminal-Derived Peptide” (Biomolecules, 2022).)
